Experimental data from article PMC4736406 (Stem Cells International, 2016).
Structures can show the parent of a compound that is named as a salt.

Assays:
[1] = system: hiPSC derived hepatocytes (hiPS-HEP); conditions: human, 48 h;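 note: hiPS-HEP obtained from ChiPSC4 through definitive endoderm under serum- and feeder-free conditions in 96-well plates, fluorescence imaging, each concentration run in triplicate wells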
Description: (§1) For hepatic differentiation, a serum- and feeder-free procedure recapitulating liver development was applied. First, ChiPSC4 was guided to differentiate into definitive endoderm using the Cellartis DE Diff Kit (Takara Bio Europe AB; Y30030), containing complete media and coating solution for differentiation of hPSC to DE cells in 2D culture. On day 7 of differentiation, the DE cells were enzymatically dissociated and reseeded into fibronectin coated 96-well plates. […] Wells of 96-well plates were coated by adding fibronectin solution 0.15 mL per cm^2 to the wells and let to incubate for >60 min at RT. […] Next, the cell suspension was centrifuged for 5 min at 300 g at RT, the supernatant was removed, and the cell pellet was resuspended in warm Hepatocyte Thawing and Seeding medium (Cellartis Hepatocyte Diff Kit; Takara Bio Europe AB; Y30050). Prior to seeding of cells, excess coating was removed and 150 K DE cells/cm^2 were seeded in the 96-well plates. On days 9 and 11 (counted from the start of ChiPSC4 differentiation), medium was changed using Hepatocyte Progenitor Medium (Cellartis Hepatocyte Diff Kit).
(§2) The cells were treated for 48 h with compounds at varying concentrations (half log dilution from the top concentration). […] The stock solutions were prepared in DMSO or water and were diluted in culture medium to obtain the final concentration. Each concentration was assayed in triplicate wells. Vehicle control wells were included and the final DMSO concentration in the medium never exceeded 0.5% (v/v). Each batch had two plates each for fixed and live assays.
(§3) LipidTOX Green neutral lipids and LipidTox Red phospholipidosis were used for identifying neutral lipid and phospholipid formation within the cells. MMP changes (Δψm) within the cell were measured using MitoTracker orange. Carboxy-H2DCFDA (6-carboxy-2′,7′-dichlorodihydrofluorescein diacetate) an acetylated fluorescent was used for measuring ROS. And finally, TOTO-3 was used for assessing PMP.
(§4) The fluorescence probes were grouped into two sets according to their optical compatibility and requirement of fixed or live material. […] The fluorescent probes for neutral lipids and phospholipids required the cells to be fixed and were assigned to the fixed assay. The probes MitoTracker orange, carboxy-H2DCFDA, and TOTO-3 were assigned to the live assay.
(§5) Following compound incubation, probes were administered to the cultures of the live assay. […] After incubation for 45 min at optimal cell culture conditions, the cells were changed to phenol red (PR) free medium for live cell imaging. For fixed assay, LipidTox Red probe was added with the compounds, and after 48 h the cells were fixed in 4% PFA supplemented with 1X Hoechst stain for 30 min at room temperature. Subsequently, cells were washed with PBS^+/+ and 1X LipidTOX Green stain diluted in PBS^+/+ was incubated with the cells for 30 min at room temperature. The plates were imaged without removing the buffer with probe.
(§6) The cells were imaged using an Olympus ScanR system. Prior to image acquisition, the heating system and CO2 gas flow were started to ensure optimal conditions in the ScanR chamber for live cell analysis. The incubator was set to 37°C with 5% CO2 and relative humidity of 90%. […] 20X long distance objective with NA 0.45 was used to image distinct fluorescence channels. In order to cover the entire well and also to capture maximum cell events sixteen fields per well (4 × 4 tile grid spread equally) were imaged. The channel exposure time for LipidTOX Green, LipidTOX Red, MitoTracker orange, and carboxy-H2DCFHDA were set based on the fluorescence of the negative control wells and were set constant within each plate. Exposure time for Hoechst and TOTO-3 was set in the range of 1–10 ms depending on cellular fluorescence intensity.
(§7) The acquired images were analyzed using ScanR analysis program from Olympus.

[2] = system: HepG2 cells; assay: Image based high content analysis (HCA), fixed and live assays, in HepG2
Protocol: Briefly, the cells were grown in DMEM supplemented with 10% heat inactivated FBS, 1% penicillin-streptomycin (PEST), 1% sodium pyruvate, and 1% nonessential amino acids. Cells were passaged at 1 : 8 or 1 : 6 every 3-4 days when they reach 75–80% confluence. Seeding density was optimized for HCA application to ensure that the cells were in a monolayer (5000 cells per well in 96-well plates) for precise imaging. The cells were grown for 48 h to attach and stabilize. The experiments performed with HepG2 cells were designed to ensure that each assay was performed with cells in a similar growth phase.
Each concentration was assayed in triplicate wells. […] The experimental process is illustrated in Figure 2.
And finally, TOTO-3 was used for assessing PMP.
The cells were imaged using an Olympus ScanR system.
All other fluorescence signals were considered as subobjects.

[3] = system: hiPSC derived hepatocytes (hiPS-HEP); assay: Image based high content analysis (HCA), fixed and live assays, in hiPSC derived hepatocytes; conditions: hiPSC derived hepatocytes; negative control substance;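 note: hiPS-HEP obtained from ChiPSC4 through definitive endoderm under serum- and feeder-free conditions in 96-well plates, fluorescence imaging, each concentration run in triplicate wells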
Description: as §1, §2, §3, §4, §5, §6, §7

[4] = HepG2, fixed assay, 48 h, p<0.05 vs control
[5] = HepG2, fixed, at 100 µM (Amiodarone HCL at […])
[6] = HepG2, live assay, 48 h, p<0.05 vs control
[7] = HepG2, live, at 100 µM (Amiodarone HCL at […])

SMILES: CCCCc1oc2ccccc2c1C(=O)c1cc(I)c(OCCN(CC)CC)c(I)c1 [Amiodarone, amiodarone hydrochloride]
- Concentration below which no cytotoxic effects were displayed [1]: 12.5 µM
- Detection of phospholipid accumulation / phospholipidosis ([2]; HepG2): false negative prediction
- Category based on degree of injury ([2]; HepG2, […] for amiodarone, 100 μM for the others): severely
- Severity (sum of individual scores, degree of injury) ([2]; HepG2, at 100 µM (Amiodarone HCL at […])): 20
- IC50/EC50 Nucleus Area ([2]; HepG2, fixed assay, 48 h): 39.5 µM
- IC50/EC50 Nucleus Cell count ([2]; HepG2, fixed assay, 48 h): 7.6 µM
- IC50/EC50 Nucleus MI ([2]; HepG2, fixed assay, 48 h): 140 µM
- IC50/EC50 Phospholipidosis Area ([2]; HepG2, fixed assay, 48 h): 7.3 µM
- IC50/EC50 Phospholipidosis Count ([2]; HepG2, fixed assay, 48 h): 8.9 µM
- IC50/EC50 Phospholipidosis MI ([2]; HepG2, fixed assay, 48 h): 35.6 µM
- IC50/EC50 Steatosis Area ([2]; HepG2, fixed assay, 48 h): 30.6 µM
- IC50/EC50 Steatosis Count ([2]; HepG2, fixed assay, 48 h): 19.5 µM
- IC50/EC50 Steatosis MI ([2]; HepG2, fixed assay, 48 h): 23.6 µM
- MEC, steatosis area (S, A) [2, 4]: 125 µM
- MEC, steatosis mean intensity (S, MI) [2, 4]: 39.5 µM
- Minimal effective concentration (MEC), viability cell count (V, CC) [2, 4]: 4 µM
- Degree of injury score, Neutral Lipids Area [2, 5]: 0 (variation lower than 25%)
- Degree of injury score, Neutral Lipids C [2, 5]: 2 (variation 150-300%)
- Degree of injury score, Neutral Lipids MI [2, 5]: 3 (variation >300%)
- Degree of injury score, Nucleus Area [2, 5]: 1 (variation ± 20-40%)
- Degree of injury score, Nucleus CC [2, 5]: 3 (variation ± 60-100%)
- Degree of injury score, Nucleus MI [2, 5]: 1 (variation ± 20-40%)
- Degree of injury score, Phospholipids Area [2, 5]: 1 (variation 25-150%)
- Degree of injury score, Phospholipids C [2, 5]: 0 (variation lower than 25%)
- Degree of injury score, Phospholipids MI [2, 5]: 0 (variation lower than 25%)
- Degree of injury (category) ([2]; HepG2, isomolar concentration of 100 µM ([…] for amiodarone)): Severe hepatotoxicity (severely toxic (≥15))
- IC50/EC50 MMP MI ([2]; HepG2, live assay, 48 h): 345 µM
- IC50/EC50 Nucleus Area ([2]; HepG2, live assay, 48 h): 29.1 µM
- IC50/EC50 Nucleus Cell count ([2]; HepG2, live assay, 48 h): 7.2 µM
- IC50/EC50 Nucleus MI ([2]; HepG2, live assay, 48 h): 25.0 µM
- IC50/EC50 PMP MI ([2]; HepG2, live assay, 48 h): 147 µM
- IC50/EC50 ROS MI ([2]; HepG2, live assay, 48 h): 4.6 µM
- MEC, MMP mean intensity [2, 6]: 12.5 µM
- MEC, ROS mean intensity [2, 6]: 12.5 µM
- MEC, viability cell count (V, CC) [2, 6]: 12.5 µM
- Degree of injury score, MMP MI [2, 7]: 1 (variation ± 20-40%)
- Degree of injury score, Nucleus Area [2, 7]: 1 (variation ± 20-40%)
- Degree of injury score, Nucleus CC [2, 7]: 3 (variation ± 60-100%)
- Degree of injury score, Nucleus MI [2, 7]: 2 (variation ± 40-60%)
- Degree of injury score, PMP MI [2, 7]: 1 (variation ± 20-40%)
- Degree of injury score, ROS MI [2, 7]: 1 (variation ± 20-40%)

SMILES: O=C([O-])CC(O)(CC(=O)[O-])C(=O)[O-].[Na+].[Na+].[Na+] [Sodium citrate, sodium citrate]
- Degree of injury score, Phospholipids Area [2, 5]: 0 (variation lower than 25%)
- Degree of injury score, Phospholipids C [2, 5]: 1 (variation 25-150%)
- Degree of injury score, Phospholipids MI [2, 5]: 0 (variation lower than 25%)
- Score for phospholipidosis ([2]; HepG2 cultures, at 100 μM): false positive score
- Effects on all parameters measured over the whole dose range [3]: No significant effects
